Columns and labels:
Test in all cases: Enzyme Assay
PIK3CG (human) = PIK3CG (human) (UniProt P48736)
PIK3CD (Human) = PIK3CD (Human) (UniProt O00329)
PIK3CB (Human) = PIK3CB (Human) (UniProt P42338)
Chain of PIK3CB (Human) (P42338 whole entry, looked up): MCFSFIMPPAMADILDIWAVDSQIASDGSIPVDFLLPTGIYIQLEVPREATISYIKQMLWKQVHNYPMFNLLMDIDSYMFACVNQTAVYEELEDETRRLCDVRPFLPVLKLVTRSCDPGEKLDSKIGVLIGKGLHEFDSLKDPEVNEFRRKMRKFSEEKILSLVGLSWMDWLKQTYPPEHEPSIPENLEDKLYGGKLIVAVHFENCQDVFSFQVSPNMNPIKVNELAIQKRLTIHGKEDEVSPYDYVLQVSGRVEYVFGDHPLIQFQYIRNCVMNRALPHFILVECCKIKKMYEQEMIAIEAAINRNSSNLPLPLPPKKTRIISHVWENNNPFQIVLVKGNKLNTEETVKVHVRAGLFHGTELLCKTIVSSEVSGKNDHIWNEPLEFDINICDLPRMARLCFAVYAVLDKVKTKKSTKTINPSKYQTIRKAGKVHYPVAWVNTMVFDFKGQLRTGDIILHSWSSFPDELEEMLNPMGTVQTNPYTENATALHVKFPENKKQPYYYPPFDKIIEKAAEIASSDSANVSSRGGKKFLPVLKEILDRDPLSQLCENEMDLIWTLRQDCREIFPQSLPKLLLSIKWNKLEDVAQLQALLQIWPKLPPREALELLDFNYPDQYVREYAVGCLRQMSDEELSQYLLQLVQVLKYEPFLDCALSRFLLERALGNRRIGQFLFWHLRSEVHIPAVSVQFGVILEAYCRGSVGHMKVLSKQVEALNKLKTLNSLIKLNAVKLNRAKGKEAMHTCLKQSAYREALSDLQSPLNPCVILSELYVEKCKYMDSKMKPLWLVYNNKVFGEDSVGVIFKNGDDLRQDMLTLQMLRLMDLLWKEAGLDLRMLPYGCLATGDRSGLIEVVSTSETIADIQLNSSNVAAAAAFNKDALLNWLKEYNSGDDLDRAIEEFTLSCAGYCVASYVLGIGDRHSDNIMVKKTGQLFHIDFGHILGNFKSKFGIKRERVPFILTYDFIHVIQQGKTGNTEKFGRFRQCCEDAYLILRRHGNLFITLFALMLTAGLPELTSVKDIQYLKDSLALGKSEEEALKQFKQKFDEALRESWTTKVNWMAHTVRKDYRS

Chain of PIK3CD (Human) (O00329 whole entry, looked up): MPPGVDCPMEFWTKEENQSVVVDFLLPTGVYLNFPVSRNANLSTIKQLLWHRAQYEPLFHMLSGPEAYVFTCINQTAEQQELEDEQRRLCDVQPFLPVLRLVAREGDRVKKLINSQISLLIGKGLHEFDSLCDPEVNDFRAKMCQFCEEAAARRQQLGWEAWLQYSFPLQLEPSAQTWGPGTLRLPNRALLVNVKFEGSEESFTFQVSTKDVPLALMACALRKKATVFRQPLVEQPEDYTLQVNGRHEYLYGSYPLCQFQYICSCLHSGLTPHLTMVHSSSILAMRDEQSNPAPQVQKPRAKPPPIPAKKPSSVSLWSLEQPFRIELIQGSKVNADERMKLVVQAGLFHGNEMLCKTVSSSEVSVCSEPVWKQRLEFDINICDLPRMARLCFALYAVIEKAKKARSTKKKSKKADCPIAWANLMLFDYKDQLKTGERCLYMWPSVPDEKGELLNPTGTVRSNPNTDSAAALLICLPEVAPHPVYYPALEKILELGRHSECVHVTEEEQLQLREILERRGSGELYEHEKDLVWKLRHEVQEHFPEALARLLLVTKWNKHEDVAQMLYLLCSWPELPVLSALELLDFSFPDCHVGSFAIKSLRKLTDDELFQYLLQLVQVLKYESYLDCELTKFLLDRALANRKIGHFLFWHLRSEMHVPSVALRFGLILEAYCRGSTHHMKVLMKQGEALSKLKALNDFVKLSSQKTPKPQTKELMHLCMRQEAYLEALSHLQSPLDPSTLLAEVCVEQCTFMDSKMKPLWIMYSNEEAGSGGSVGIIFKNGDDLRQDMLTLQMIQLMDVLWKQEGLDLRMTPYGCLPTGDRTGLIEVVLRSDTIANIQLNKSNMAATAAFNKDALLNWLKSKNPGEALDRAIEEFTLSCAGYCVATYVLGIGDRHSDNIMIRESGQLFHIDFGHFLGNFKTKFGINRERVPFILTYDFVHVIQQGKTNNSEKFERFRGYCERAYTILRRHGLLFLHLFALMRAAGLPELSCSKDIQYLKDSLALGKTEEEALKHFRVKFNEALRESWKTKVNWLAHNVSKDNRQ
Chain of PIK3CG (human) (P48736 whole entry, looked up): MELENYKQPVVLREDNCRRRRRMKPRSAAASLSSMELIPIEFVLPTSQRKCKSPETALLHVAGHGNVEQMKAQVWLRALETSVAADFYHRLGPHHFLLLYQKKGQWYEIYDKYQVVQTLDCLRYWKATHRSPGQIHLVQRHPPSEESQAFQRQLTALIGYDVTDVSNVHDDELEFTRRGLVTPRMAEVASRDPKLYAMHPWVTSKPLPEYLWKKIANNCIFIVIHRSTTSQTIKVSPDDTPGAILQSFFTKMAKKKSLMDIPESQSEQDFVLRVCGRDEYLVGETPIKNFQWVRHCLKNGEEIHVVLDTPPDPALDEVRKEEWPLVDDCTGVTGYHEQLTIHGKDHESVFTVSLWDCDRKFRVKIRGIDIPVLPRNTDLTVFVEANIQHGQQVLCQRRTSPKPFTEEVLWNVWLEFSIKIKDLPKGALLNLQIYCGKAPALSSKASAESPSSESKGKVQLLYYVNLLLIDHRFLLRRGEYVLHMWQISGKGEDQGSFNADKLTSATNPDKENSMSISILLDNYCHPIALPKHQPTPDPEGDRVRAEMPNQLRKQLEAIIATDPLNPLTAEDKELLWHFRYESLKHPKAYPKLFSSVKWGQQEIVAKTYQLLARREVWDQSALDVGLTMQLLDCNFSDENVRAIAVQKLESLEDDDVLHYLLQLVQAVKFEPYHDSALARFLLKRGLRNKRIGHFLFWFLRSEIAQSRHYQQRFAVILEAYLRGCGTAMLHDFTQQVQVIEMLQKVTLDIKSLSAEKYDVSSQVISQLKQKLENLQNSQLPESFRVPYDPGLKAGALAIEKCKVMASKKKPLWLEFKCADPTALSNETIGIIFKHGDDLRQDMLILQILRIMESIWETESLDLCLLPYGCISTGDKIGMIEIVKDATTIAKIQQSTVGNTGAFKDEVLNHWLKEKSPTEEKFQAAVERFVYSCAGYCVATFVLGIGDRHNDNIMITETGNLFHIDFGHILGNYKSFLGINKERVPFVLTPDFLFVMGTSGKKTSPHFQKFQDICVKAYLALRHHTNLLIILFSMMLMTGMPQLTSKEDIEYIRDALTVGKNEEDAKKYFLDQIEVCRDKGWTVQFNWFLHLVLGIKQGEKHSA

Row | SMILES | IC50 (PIK3CG (human)) | IC50 (PIK3CD (Human)) | IC50 (PIK3CB (Human))
1 | Nc1nc(N2CCC[C@H]2c2nn3cccc3c(=O)n2-c2ccccc2)c2nc[nH]c2n1 | 40 nM | 6 nM | 
2 | COc1ncc(-c2n[nH]c3ncnc(N4CCC[C@H]4c4nn5ccc(Cl)c5c(=O)n4-c4ccccc4)c23)cn1 | 15 nM | 1 nM | 47 nM
3 | Nc1ncc([N+](=O)O)c(N2CC[C@H]2c2nn3ccc(Cl)c3c(=O)n2-c2ccccc2)n1 | 25 nM | 40 nM | 
4 | N#Cc1n[nH]c2ncnc(N3CCC[C@H]3c3nn4cccc4c(=O)n3-c3ccccc3)c12 | 231 nM | 26 nM | 
5 | COc1cccc(-n2c([C@@H]3CCCN3c3ncnc4[nH]cc(C#N)c34)nn3cccc3c2=O)c1 | 89 nM | 5 nM | 
6 | C=Cc1ccn2nc([C@@H]3CCN3c3ncnc4[nH]cc(C#N)c34)n(-c3ccccc3)c(=O)c12 |  | 300 nM | 
7 | CC(Nc1ncnc2[nH]cc(C#N)c12)c1cc2cccn2c(=O)n1-c1ccccc1 (configuration not stated) | 105 nM |  | 
8 | N#Cc1c(N)ncnc1OCc1cc2ncc(Cl)n2c(=O)n1-c1ccccc1 |  | 136 nM | 
9 | C[C@H]1CN(c2nc(N)nc3c2C(=O)CCN3)[C@@H]1c1nn2ccc(Cl)c2c(=O)n1-c1ccccn1 | 18 nM | 12 nM | 1580 nM
10 | C[S@@+]([O-])c1c[nH]c2ncnc(N3C[C@@H](C#N)C[C@H]3c3nn4ccc(Cl)c4c(=O)n3-c3ccccc3)c12 | 16 nM | 64 nM | 
11 | O=c1c2c(Br)ccn2nc([C@@H]2CCN2c2ncnc3[nH]cnc23)n1-c1ccccc1 | 287 nM | 156 nM | 
12 | Nc1ncc(C(=O)C(F)F)c(N2CC[C@H]2c2nn3ccc(Cl)c3c(=O)n2-c2ccccc2)n1 | 10 nM | 38 nM | 
13 | N#Cc1c[nH]c2ncnc(N3CC[C@H]3c3nn4cccc4c(=O)n3-c3ccccc3)c12 |  | 93 nM | 
14 | C[S@+]([O-])c1c[nH]c2ncnc(N3C[C@@H](C#N)C[C@H]3c3nn4ccc(Cl)c4c(=O)n3-c3ccccc3)c12 | 38 nM | 21 nM | 256 nM
